The record followed here is patent publication US20090018134A1, “Compounds - 945” (AstraZeneca AB, priority 2007, published 2009).

In assay [1] the target is T1, mTOR (Homo sapiens, UniProt P42345).
T1 construct: FLAG; made in house
The assay is described as follows: mTOR Kinase Assay (Echo). The format is biochemical.

In assay [2] the target is T1, mTOR. Kind of assay: In Vitro mTOR Kinase Assay (Echo), Test (a)(ii). The format is biochemical. The following applies: table of enzyme assay Test (a)(ii); read-out: Test (a)(ii) IC50. The method in brief:
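Compounds were acoustically dispensed, then incubated with FLAG-tagged mTOR (1362-2549) for 2 hours at room temperature. Reactions were quenched with EDTA plus detection antibody and AlphaScreen beads and left overnight in the dark before reading. Loss of phospho-T389 signal gave IC50 values.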

T1 sequence (P42345 1362-2549): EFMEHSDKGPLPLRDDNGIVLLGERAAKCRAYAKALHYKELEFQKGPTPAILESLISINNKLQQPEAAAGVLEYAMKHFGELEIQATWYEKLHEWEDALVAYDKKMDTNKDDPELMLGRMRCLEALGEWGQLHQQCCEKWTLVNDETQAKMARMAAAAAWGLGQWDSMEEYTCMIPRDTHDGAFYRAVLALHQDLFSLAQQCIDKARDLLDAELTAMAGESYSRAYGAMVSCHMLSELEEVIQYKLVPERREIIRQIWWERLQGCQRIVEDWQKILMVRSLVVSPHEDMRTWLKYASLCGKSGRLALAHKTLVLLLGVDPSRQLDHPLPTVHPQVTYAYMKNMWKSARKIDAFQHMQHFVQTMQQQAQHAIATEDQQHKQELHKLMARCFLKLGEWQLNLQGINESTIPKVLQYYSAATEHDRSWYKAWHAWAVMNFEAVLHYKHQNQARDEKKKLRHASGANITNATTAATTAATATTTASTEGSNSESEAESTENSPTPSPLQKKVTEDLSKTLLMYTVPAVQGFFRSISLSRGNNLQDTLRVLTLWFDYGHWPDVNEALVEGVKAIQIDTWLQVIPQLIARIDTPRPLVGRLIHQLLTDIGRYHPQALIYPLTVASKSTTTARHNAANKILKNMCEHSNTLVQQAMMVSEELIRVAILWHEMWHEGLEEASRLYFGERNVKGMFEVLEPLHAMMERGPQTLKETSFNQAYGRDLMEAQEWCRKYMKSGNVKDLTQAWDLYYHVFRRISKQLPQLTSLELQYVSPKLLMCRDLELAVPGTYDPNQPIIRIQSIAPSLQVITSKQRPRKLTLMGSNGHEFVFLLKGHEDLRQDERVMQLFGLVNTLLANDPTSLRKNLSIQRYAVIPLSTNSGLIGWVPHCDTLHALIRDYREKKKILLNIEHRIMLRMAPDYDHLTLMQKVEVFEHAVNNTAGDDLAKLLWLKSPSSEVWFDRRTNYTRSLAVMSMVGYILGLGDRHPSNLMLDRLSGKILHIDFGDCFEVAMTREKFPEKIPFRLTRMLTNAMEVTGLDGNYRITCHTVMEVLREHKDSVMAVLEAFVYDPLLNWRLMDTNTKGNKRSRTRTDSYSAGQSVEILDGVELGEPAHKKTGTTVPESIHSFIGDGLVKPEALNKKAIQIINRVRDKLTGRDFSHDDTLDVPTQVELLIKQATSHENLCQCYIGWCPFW

The IC50 is the concentration that inhibits the measured activity by half. Regarding `O=C(Nc1ccc(-c2nc(N3CCOCC3)cc(C3(S(=O)(=O)C4CC4)CC3)n2)cc1)NC1CCC1` [Example 13c, 3-cyclobutyl-1-[4-[4-(1-cyclopropylsulfonylcyclopropyl)-6-morpholin-4-ylpyrimidin-2-yl]phenyl]urea], the IC50 on mTOR [1] was 2.4 nM; at mTOR [2], 1.73 nM.

For `C[C@H]1COCCN1c1cc(C2(S(=O)(=O)C(C)(C)C)CC2)nc(-c2ccc(NC(=O)NC3CCC3)cc2)n1` [Example 18a, 1-[4-[4-(1-tert-butylsulfonylcyclopropyl)-6-[(3S)-3-methylmorpholin-4-yl]pyrimidin-2-yl]phenyl]-3-cyclobutylurea], the figures for the IC50 at mTOR [1] and on mTOR [2] were 9.67 nM and 7.14 nM, respectively.

On to `Cc1csc(S(=O)(=O)C2(c3cc(N4CCOC[C@@H]4C)nc(-c4ccc(NC(=O)NC(C)C)cc4)n3)CC2)n1` [Example 25d, 1-[4-[4-[(3S)-3-methylmorpholin-4-yl]-6-[1-[(4-methyl-1,3-thiazol-2-yl)sulfonyl]cyclopropyl]pyrimidin-2-yl]phenyl]-3-propan-2-ylurea], for which the IC50 was found to be 1.57 nM at mTOR [1] and 1.52 nM on mTOR [2].

In the case of `Cc1csc(S(=O)(=O)C2(c3cc(N4CCOC[C@@H]4C)nc(-c4ccc(NC(=O)NCCO)cc4)n3)CC2)n1` [Example 25g, 3-(2-hydroxyethyl)-1-[4-[4-[(3S)-3-methylmorpholin-4-yl]-6-[1-[(4-methyl-1,3-thiazol-2-yl)sulfonyl]cyclopropyl]pyrimidin-2-yl]phenyl]urea], the IC50 against mTOR [1] is 1.19 nM; at mTOR [2], 1.43 nM.

Take `C[C@H]1COCCN1c1cc(C2(S(=O)(=O)c3ccc(Cl)cc3)CC2)nc(-c2ccc(NC(=O)NC3CC3)cc2)n1` [Example 27, 1-[4-[4-[1-(4-Chlorophenyl)sulfonylcyclopropyl]-6-[(3S)-3-methylmorpholin-4-yl]pyrimidin-2-yl]phenyl]-3-cyclopropylurea]: the figures for the IC50 against mTOR [1] and at mTOR [2] were 1.44 nM and 1.11 nM, respectively.

Regarding `CNC(=O)Nc1ccc(-c2nc(N3CCOC[C@@H]3C)cc(C3(S(=O)(=O)c4ccc(Cl)cc4)CC3)n2)cc1` [Example 27e, 1-[4-[4-[1-(4-chlorophenyl)sulfonylcyclopropyl]-6-[(3S)-3-methylmorpholin-4-yl]pyrimidin-2-yl]phenyl]-3-methylurea], the IC50 was determined as 0.719 nM on mTOR [1] and 0.351 nM at mTOR [2].

As for `CCNC(=O)Nc1ccc(-c2nc(N3CCOC[C@@H]3C)cc(C3(S(=O)(=O)c4ccc(Cl)cc4)CC3)n2)cc1` [Example 27f, 3-[4-[4-[1-(4-chlorophenyl)sulfonylcyclopropyl]-6-[(3S)-3-methylmorpholin-4-yl]pyrimidin-2-yl]phenyl]-1-ethylurea], the IC50 on mTOR [1] is 0.959 nM; on mTOR [2], 0.997 nM.

On to `C[C@H]1COCCN1c1cc(C2(S(=O)(=O)c3ccc(Cl)cc3)CC2)nc(-c2ccc(NC(=O)NCCN(C)C)cc2)n1` [Example 27g, 1-[4-[4-[1-(4-chlorophenyl)sulfonylcyclopropyl]-6-[(3S)-3-methylmorpholin-4-yl]pyrimidin-2-yl]phenyl]-3-(2-dimethylaminoethyl)urea], for which the IC50 on mTOR [1] turned out to be 18.9 nM; at mTOR [2], 21.3 nM.

In the case of `C[C@H]1COCCN1c1cc(C2(S(=O)(=O)c3ccc(Cl)cc3)CC2)nc(-c2ccc(NC(=O)NCCO)cc2)n1` [Example 27h, 1-[4-[4-[1-(4-chlorophenyl)sulfonylcyclopropyl]-6-[(3S)-3-methylmorpholin-4-yl]pyrimidin-2-yl]phenyl]-3-(2-hydroxyethyl)urea], the concentration for half-maximal inhibition (IC50) against mTOR [1] was found to be 0.0856 nM; at mTOR [2], 0.244 nM.

As to `C[C@H]1COCCN1c1cc(C2(S(=O)(=O)c3ccccn3)CC2)nc(-c2ccc(NC(=O)NC3CC3)cc2)n1` [Example 28, 3-Cyclopropyl-1-[4-[4-[(3S)-3-methylmorpholin-4-yl]-6-(1-pyridin-2-ylsulfonylcyclopropyl)pyrimidin-2-yl]phenyl]urea], the IC50 on mTOR [1] was 0.816 nM; on mTOR [2], 1.87 nM.

As to `C[C@H]1COCCN1c1cc(C2(S(=O)(=O)c3ccccn3)CC2)nc(-c2ccc(NC(=O)NCCO)cc2)n1` [Example 28g, 3-(2-hydroxyethyl)-1-[4-[4-[(3S)-3-methylmorpholin-4-yl]-6-(1-pyridin-2-ylsulfonylcyclopropyl)pyrimidin-2-yl]phenyl]urea], the IC50 against mTOR [1] came to 11.8 nM; on mTOR [2] it was 1.18 nM.

As to `C[C@H]1COCCN1c1cc(C2(S(=O)(=O)c3ccccn3)CCC2)nc(-c2ccc(NC(=O)Nc3cnn(C)c3)cc2)n1` [Example 36aj, 1-[4-[4-[(3S)-3-methylmorpholin-4-yl]-6-(1-pyridin-2-ylsulfonylcyclobutyl)pyrimidin-2-yl]phenyl]-3-(1-methylpyrazol-4-yl)urea], the IC50 on mTOR [1] stood at 2.58 nM; on mTOR [2] it was 2.55 nM.

The compound `C[C@H]1COCCN1c1cc(C2(S(=O)(=O)c3ccccn3)CC2)nc(-c2ccc(NC(=O)NC3(CO)CC3)cc2)n1` [Example 36cv, 3-[1-(hydroxymethyl)cyclopropyl]-1-[4-[4-[(3S)-3-methylmorpholin-4-yl]-6-(1-pyridin-2-ylsulfonylcyclopropyl)pyrimidin-2-yl]phenyl]urea] displayed an IC50 at mTOR [1] of 259 nM.

Turning to `C[C@H]1COCCN1c1cc(C2(S(=O)(=O)c3nccs3)CCC2)nc(-c2ccc(NC(=O)NCCCO)cc2)n1` [Example 98j, 3-(3-hydroxypropyl)-1-[4-[4-[(3S)-3-methylmorpholin-4-yl]-6-[1-(1,3-thiazol-2-ylsulfonyl)cyclobutyl]pyrimidin-2-yl]phenyl]urea], the IC50 at mTOR [2] was 3.74 nM.

As for `C[C@H]1COCCN1c1cc(C2(S(=O)(=O)c3nccs3)CCC2)nc(-c2ccc(NC(=O)NCCO)cc2)n1` [Example 98k, 3-(2-hydroxyethyl)-1-[4-[4-[(3S)-3-methylmorpholin-4-yl]-6-[1-(1,3-thiazol-2-ylsulfonyl)cyclobutyl]pyrimidin-2-yl]phenyl]urea], on mTOR [2], the IC50 is 2.46 nM.

`C[C@H](CO)NC(=O)Nc1ccc(-c2nc(N3CCOC[C@@H]3C)cc(C3(S(=O)(=O)c4nccs4)CCC3)n2)cc1` [Example 98l, 3-[(2R)-1-hydroxypropan-2-yl]-1-[4-[4-[(3S)-3-methylmorpholin-4-yl]-6-[1-(1,3-thiazol-2-ylsulfonyl)cyclobutyl]pyrimidin-2-yl]phenyl]urea]: the IC50 at mTOR [2] came out at 7.89 nM.

Regarding `CNC(=S)Nc1ccc(-c2nc(N3CCOC[C@@H]3C)cc(C3(S(=O)(=O)CCCO)CCC3)n2)cc1` [Example 99a, 1-[4-[4-[1-(3-hydroxypropylsulfonyl)cyclobutyl]-6-[(3S)-3-methylmorpholin-4-yl]pyrimidin-2-yl]phenyl]-3-methylthiourea], the IC50 on mTOR [2] was 43.8 nM.

With `C[C@H]1COCCN1c1cc(C2(S(=O)(=O)CCCO)CCC2)nc(-c2ccc(NC(=S)NC3CC3)cc2)n1` [Example 99b, 3-cyclopropyl-1-[4-[4-[1-(3-hydroxypropylsulfonyl)cyclobutyl]-6-[(3S)-3-methylmorpholin-4-yl]pyrimidin-2-yl]phenyl]thiourea], the IC50 at mTOR [2] came to 31.6 nM.

With `C[C@H]1COCCN1c1cc(C2(S(=O)(=O)CCCO)CCC2)nc(-c2ccc(NC(=S)NCc3ncc[nH]3)cc2)n1` [Example 99c, 1-[4-[4-[1-(3-hydroxypropylsulfonyl)cyclobutyl]-6-[(3S)-3-methylmorpholin-4-yl]pyrimidin-2-yl]phenyl]-3-(1H-imidazol-2-ylmethyl)thiourea], at mTOR [2], the IC50 amounted to 239 nM.

On to `C[C@H]1COCCN1c1cc(C2(S(=O)(=O)CCCO)CCC2)nc(-c2ccc(NC(=S)NC(C)(C)CO)cc2)n1` [Example 99d, 3-(1-hydroxy-2-methylpropan-2-yl)-1-[4-[4-[1-(3-hydroxypropylsulfonyl)cyclobutyl]-6-[(3S)-3-methylmorpholin-4-yl]pyrimidin-2-yl]phenyl]thiourea], for which the IC50 at mTOR [2] turned out to be 219 nM.

For `CCNC(=S)Nc1ccc(-c2nc(N3CCOC[C@@H]3C)cc(C3(S(=O)(=O)CCCO)CCC3)n2)cc1` [Example 99e, 1-ethyl-3-[4-[4-[1-(3-hydroxypropylsulfonyl)cyclobutyl]-6-[(3S)-3-methylmorpholin-4-yl]pyrimidin-2-yl]phenyl]thiourea], the IC50 at mTOR [2] amounted to 31.7 nM.

With `C[C@H]1COCCN1c1cc(C2(S(=O)(=O)CCCO)CCC2)nc(-c2ccc(NC(=S)NCCO)cc2)n1` [Example 99f, 3-(2-hydroxyethyl)-1-[4-[4-[1-(3-hydroxypropylsulfonyl)cyclobutyl]-6-[(3S)-3-methylmorpholin-4-yl]pyrimidin-2-yl]phenyl]thiourea], the IC50 on mTOR [2] stood at 5.89 nM.

For the compound `C[C@H]1COCCN1c1cc(C2(S(=O)(=O)CCCO)CCC2)nc(-c2ccc(NC(=S)NCC(F)F)cc2)n1` [Example 99g, 3-(2,2-difluoroethyl)-1-[4-[4-[1-(3-hydroxypropylsulfonyl)cyclobutyl]-6-[(3S)-3-methylmorpholin-4-yl]pyrimidin-2-yl]phenyl]thiourea], the IC50 at mTOR [2] worked out at 15.2 nM.

Regarding `CCCNC(=S)Nc1ccc(-c2nc(N3CCOC[C@@H]3C)cc(C3(S(=O)(=O)CCCO)CCC3)n2)cc1` [Example 99h, 3-[4-[4-[1-(3-hydroxypropylsulfonyl)cyclobutyl]-6-[(3S)-3-methylmorpholin-4-yl]pyrimidin-2-yl]phenyl]-1-propylthiourea], at mTOR [2], the IC50 is 78.2 nM.

As to `C[C@H]1COCCN1c1cc(C2(S(=O)(=O)CCCO)CCC2)nc(-c2ccc(NC(=S)NCCCO)cc2)n1` [Example 99i, 3-(3-hydroxypropyl)-1-[4-[4-[1-(3-hydroxypropylsulfonyl)cyclobutyl]-6-[(3S)-3-methylmorpholin-4-yl]pyrimidin-2-yl]phenyl]thiourea], the IC50 on mTOR [2] was determined as 59.4 nM.

`C[C@H]1COCCN1c1cc(C2(S(=O)(=O)CCCO)CC2)nc(-c2ccc(NC(=S)NCC(F)F)cc2)n1` [Example 99j, 3-(2,2-difluoroethyl)-1-[4-[4-[1-(3-hydroxypropylsulfonyl)cyclopropyl]-6-[(3S)-3-methylmorpholin-4-yl]pyrimidin-2-yl]phenyl]thiourea]: at mTOR [2], the IC50 worked out at 12.4 nM.
